Active and inactive are the calls of the source. The rule behind the calls is not given here.
Legend:
Mus musculus [1] = test: Effect on acquisition latency time in APPswe/PS1dE9 double mutant-transgenic mouse model at 15 to 30 mg/kg, ip administered once daily for 12 weeks measured post-last dose by step-through passive avoidance test; assay type: ADME, organism-based; settings: in vivo, 2016 h
Mus musculus [2] = test: Improvement in spatial memory impairment in ip dosed APPswe/PS1dE9 double mutant-transgenic mouse model assessed as decrease in number of fibrillar plaque in hippocampus administered once daily for 12 weeks measured post-last dose by thioflavin S staining-based fluorescence microscopic analysis; assay type: functional, organism-based
[3] = Plasma concentration in APPswe/PS1dE9 double mutant-transgenic mouse at 30 mg/kg, ip administered as single dose measured after 2 hrs by LC-MS/MS analysis; assay type: ADME, organism-based
Mus musculus [4] = test: Improvement in spatial memory impairment in ip dosed APPswe/PS1dE9 double mutant-transgenic mouse model assessed as decrease in number of diffused plaque in cortex administered once daily for 12 weeks measured post-last dose by thioflavin S staining-based fluorescence microscopic analysis; assay type: functional, organism-based
[5] = Ratio of drug level in APPswe/PS1dE9 double mutant-transgenic mouse brain to plasma at 30 mg/kg, ip administered as single dose measured after 8 hrs by LC-MS/MS analysis; assay type: ADME, organism-based; settings: read-out: BPR
[6] = molecular target: T1, Mitogen-activated protein kinase 10 (Homo sapiens, UniProt P53779); test: Inhibition of recombinant human full-length JNK3 using ATF2 as substrate measured after 40 mins in presence of [gamma33P]ATP by scintillation counting analysis
T1 sequence (P53779 whole entry): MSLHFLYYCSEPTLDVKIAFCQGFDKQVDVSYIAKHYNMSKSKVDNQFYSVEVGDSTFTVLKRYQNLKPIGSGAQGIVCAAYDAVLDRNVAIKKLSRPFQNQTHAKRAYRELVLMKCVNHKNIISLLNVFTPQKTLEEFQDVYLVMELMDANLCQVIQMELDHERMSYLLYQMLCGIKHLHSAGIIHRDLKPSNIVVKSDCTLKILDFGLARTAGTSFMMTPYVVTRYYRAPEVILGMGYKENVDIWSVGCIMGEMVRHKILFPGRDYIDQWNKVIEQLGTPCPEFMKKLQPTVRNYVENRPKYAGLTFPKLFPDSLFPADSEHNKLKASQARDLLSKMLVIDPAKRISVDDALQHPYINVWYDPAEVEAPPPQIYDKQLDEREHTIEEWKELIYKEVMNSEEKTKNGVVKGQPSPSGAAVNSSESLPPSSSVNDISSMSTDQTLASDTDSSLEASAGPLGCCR

Mus musculus [7] = organism: Mus musculus; settings: 15 to 30 mg/kg
Description: In vivo inhibition of JNK in APPswe/PS1dE9 double mutant-transgenic mouse model assessed as increase in transformation of sAPPbeta to sAPPalpha by measuring reduction in sAPPbeta level at 15 to 30 mg/kg, ip administered once daily for 12 weeks measured post-last dose by Western blot analysis

Mus musculus [8] = test: Improvement in spatial memory impairment in ip dosed APPswe/PS1dE9 double mutant-transgenic mouse model assessed as decrease in number of fibrillar plaque in cortex administered once daily for 12 weeks measured post-last dose by thioflavin S staining-based fluorescence microscopic analysis; assay type: functional, organism-based
[9] = Plasma concentration in APPswe/PS1dE9 double mutant-transgenic mouse at 30 mg/kg, ip administered as single dose measured after 0.5 hrs by LC-MS/MS analysis; assay type: ADME, organism-based
Mus musculus [10] = test: Improvement in spatial memory impairment in APPswe/PS1dE9 double mutant-transgenic mouse model assessed as decrease in escape latency at 15 to 30 mg/kg, ip administered once daily for 12 weeks measured 24 hrs after training trial by morris water maze test; assay type: functional, organism-based
Mus musculus [11] = test: Improvement in spatial memory impairment in APPswe/PS1dE9 double mutant-transgenic mouse model assessed as increase in duration of time spent in target quadrant at 15 to 30 mg/kg, ip administered once daily for 12 weeks measured 24 hrs after training trial by morris water maze test; assay type: functional, organism-based
[12] = Primary phase half life in APPswe/PS1dE9 double mutant-transgenic mouse at 30 mg/kg, ip administered as single dose by LC-MS/MS analysis; assay type: ADME, organism-based; settings: in vivo, read-out: alphat1/2 (converted)
[13] = AUC in APPswe/PS1dE9 double mutant-transgenic mouse at 3 mg/kg, iv administered as single dose by LC-MS/MS analysis; assay type: ADME, organism-based; settings: in vivo
Mus musculus [14] = test: In vivo inhibition of JNK in APPswe/PS1dE9 double mutant-transgenic mouse model assessed as reduction in Tau phosphorylation at Ser235 residue in hippocampus at 30 mg/kg, ip administered once daily for 12 weeks measured post-last dose by Western blot analysis; assay type: functional, organism-based
[15] = molecular target: T1, Mitogen-activated protein kinase 10; test: Inhibition of recombinant human full-length JNK3 at 10 uM using ATF2 as substrate measured after 40 mins in presence of [gamma33P]ATP by scintillation counting analysis relative to control
[16] = Toxicity in APPswe/PS1dE9 double mutant-transgenic mouse assessed as change in body weight at 15 to 30 mg/kg, ip administered once daily for 12 weeks and measured every week during compound dosing; assay type: organism-based; settings: in vivo, 2016 h
Mus musculus [17] = test: In vivo inhibition of […] phosphorylation in hippocampus of APPswe/PS1dE9 double mutant-transgenic mouse model at 30 mg/kg, ip administered once daily for 12 weeks measured post-last dose by Western blot analysis; assay type: functional, organism-based
[18] = Clearance in APPswe/PS1dE9 double mutant-transgenic mouse at 30 mg/kg, ip administered as single dose by LC-MS/MS analysis; assay type: ADME, organism-based; settings: in vivo
[19] = Drug level in APPswe/PS1dE9 double mutant-transgenic mouse brain at 30 mg/kg, ip administered as single dose measured after 0.5 hrs by LC-MS/MS analysis; assay type: ADME, organism-based; settings: read-out: Drug uptake
Mus musculus [20] = test: Improvement in spatial memory impairment in ip dosed APPswe/PS1dE9 double mutant-transgenic mouse model assessed as decrease in area occupied by fibrillar plaque in cortex administered once daily for 12 weeks measured post-last dose by thioflavin S staining-based fluorescence microscopic analysis; assay type: functional, organism-based
Mus musculus [21] = test: Improvement in spatial memory impairment in ip dosed APPswe/PS1dE9 double mutant-transgenic mouse model assessed as decrease in number of diffused plaque in hippocampus administered once daily for 12 weeks measured post-last dose by thioflavin S staining-based fluorescence microscopic analysis; assay type: functional, organism-based
[22] = Toxicity in APPswe/PS1dE9 double mutant-transgenic mouse model assessed as effect on swimming speed at 15 to 30 mg/kg, ip administered once daily for 12 weeks measured 48 hrs after training trial by morris water maze test; assay type: organism-based; settings: in vivo
[23] = Plasma concentration in APPswe/PS1dE9 double mutant-transgenic mouse at 30 mg/kg, ip administered as single dose measured after 8 hrs by LC-MS/MS analysis; assay type: ADME, organism-based

- concentration at 2 h [3]: 1200 ng/mL
- Kp at 8 h [5]: 0.4
- IC50 [6]: 40 nM
- concentration at 0.5 h [9]: 20600 ng/mL
- half-life [12]: 20.4 min
- AUC [13]: 2120 ng·h/mL
- inhibition [15]: 99%
- CL/F [18]: 26.5 mL/min/kg
- concentration at 0.5 h [19]: 51.4 ng/g
- concentration at 8 h [23]: 78.1 ng/mL
Structure (SMILES): O=C1N/C(=N/c2ccccc2Cl)S/C1=C1\C(=O)Nc2ccc(F)cc21
- Activity (Mus musculus [1]): Non-Toxic
- Activity (Mus musculus [2]): Dose-dependent effect
- Activity (Mus musculus [4]): Dose-dependent effect
- inhibition (Mus musculus [7]): Active
- Activity (Mus musculus [8]): Dose-dependent effect
- Activity (Mus musculus [10]): Active
- Activity (Mus musculus [11]): Active
- inhibition (Mus musculus [14]): Active
- Activity [16]: Non-Toxic
- inhibition (Mus musculus [17]): Active
- Activity (Mus musculus [20]): Dose-dependent effect
- Activity (Mus musculus [21]): Dose-dependent effect
- Activity [22]: Non-Toxic

Source: ChEMBL document CHEMBL4359842 (J Med Chem, 2019)
